Laboratory results published in PubChem BioAssay (NCI).
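1) Cells in 96-well plates. 2) Compound, 48 h, 5 concentrations. 3) Linear interpolation between surrounding doses. 4) Unreached endpoint = highest concentration. Definition used: TGI = concentration required for complete inhibition of growth.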

Columns and labels:
Experiment in all cases: DTP human tumour cell line panel, 48 h
SNB-75 CNS = tested on: SNB-75 CNS
U251 CNS = tested on: U251 CNS
RXF-631 renal = tested on: RXF-631 renal
HOP-92 NSCLC = tested on: HOP-92 NSCLC
OVCAR-4 ovarian = tested on: OVCAR-4 ovarian
SNB-78 CNS = tested on: SNB-78 CNS
EKVX NSCLC = tested on: EKVX NSCLC
A549 NSCLC = tested on: A549 NSCLC
SK-MEL-5 melanoma = tested on: SK-MEL-5 melanoma
HCT-116 colon = tested on: HCT-116 colon
TK-10 renal = tested on: TK-10 renal
HOP-18 NSCLC = tested on: HOP-18 NSCLC
MOLT-4 leukemia = tested on: MOLT-4 leukemia
SF-268 CNS = tested on: SF-268 CNS
A498 renal = tested on: A498 renal
HOP-62 NSCLC = tested on: HOP-62 NSCLC
SF-539 CNS = tested on: SF-539 CNS
OVCAR-5 ovarian = tested on: OVCAR-5 ovarian
SR leukemia = tested on: SR leukemia
COLO 205 colon = tested on: COLO 205 colon
SK-MEL-28 melanoma = tested on: SK-MEL-28 melanoma
M14 melanoma = tested on: M14 melanoma
NCI-H460 lung = tested on: NCI-H460 lung
NCI-H522 lung = tested on: NCI-H522 lung
CAKI-1 renal = tested on: CAKI-1 renal
ACHN renal = tested on: ACHN renal
IGROV1 ovarian = tested on: IGROV1 ovarian
UO-31 renal = tested on: UO-31 renal
HCT-15 colon = tested on: HCT-15 colon
SK-MEL-2 melanoma = tested on: SK-MEL-2 melanoma
SF-295 CNS = tested on: SF-295 CNS
KM12 colon = tested on: KM12 colon
HCC-2998 colon = tested on: HCC-2998 colon
SN12C renal = tested on: SN12C renal
SW-620 colon = tested on: SW-620 colon
DLD-1 colon = tested on: DLD-1 colon
MALME-3M melanoma = tested on: MALME-3M melanoma
LOX IMVI melanoma = tested on: LOX IMVI melanoma
KM20L2 colon = tested on: KM20L2 colon
OVCAR-3 ovarian = tested on: OVCAR-3 ovarian
UACC-257 melanoma = tested on: UACC-257 melanoma
LXFL 529 NSCLC = tested on: LXFL 529 NSCLC
786-0 renal = tested on: 786-0 renal
UACC-62 melanoma = tested on: UACC-62 melanoma
OVCAR-8 ovarian = tested on: OVCAR-8 ovarian
DMS 273 small cell lung = tested on: DMS 273 small cell lung
K-562 leukemia = tested on: K-562 leukemia
SNB-19 CNS = tested on: SNB-19 CNS
HT29 colon = tested on: HT29 colon
HL-60(TB) leukemia = tested on: HL-60(TB) leukemia
CCRF-CEM leukemia = tested on: CCRF-CEM leukemia
M19-MEL melanoma = tested on: M19-MEL melanoma
RXF 393 renal = tested on: RXF 393 renal
NCI-H23 lung = tested on: NCI-H23 lung
RPMI-8226 leukemia = tested on: RPMI-8226 leukemia
SK-OV-3 ovarian = tested on: SK-OV-3 ovarian
XF 498 CNS = tested on: XF 498 CNS

For O=[N+]([O-])c1cccc(/C=N\NS(=O)(=O)c2ccc(Cl)cc2)c1O, which TGI (SNB-75 CNS) is on record?
The TGI was over 100 µM.

And the TGI (U251 CNS)?
The TGI was over 100 µM.

And the TGI (RXF-631 renal)?
The TGI was over 100 µM.

What about the TGI (HOP-92 NSCLC) of the same compound?
Its TGI is over 100 µM.

And the TGI (OVCAR-4 ovarian)?
Its TGI is over 100 µM.

And the TGI (SNB-78 CNS)?
The TGI was over 100 µM.

And the TGI (EKVX NSCLC)?
The TGI was over 100 µM.

And the TGI (A549 NSCLC)?
The TGI was over 100 µM.

And the TGI (SK-MEL-5 melanoma)?
Its TGI is over 100 µM.

And the TGI (HCT-116 colon)?
The TGI was over 100 µM.

What about the TGI (TK-10 renal) of the same compound?
The TGI was over 100 µM.

What about the TGI (HOP-18 NSCLC) of the same compound?
The TGI was over 100 µM.

And the TGI (MOLT-4 leukemia)?
The TGI was over 100 µM.

What about the TGI (SF-268 CNS) of the same compound?
Its TGI is over 100 µM.

And the TGI (A498 renal)?
Its TGI is over 100 µM.

What about the TGI (HOP-62 NSCLC) of the same compound?
Its TGI is over 100 µM.

And the TGI (SF-539 CNS)?
Its TGI is over 100 µM.

What about the TGI (OVCAR-5 ovarian) of the same compound?
Its TGI is over 100 µM.

What about the TGI (SR leukemia) of the same compound?
Its TGI is 60.5 µM.

And the TGI (COLO 205 colon)?
The TGI was over 100 µM.

And the TGI (SK-MEL-28 melanoma)?
Its TGI is over 100 µM.

What about the TGI (M14 melanoma) of the same compound?
The TGI was over 100 µM.

What about the TGI (NCI-H460 lung) of the same compound?
Its TGI is over 100 µM.

And the TGI (NCI-H522 lung)?
Its TGI is over 100 µM.

What about the TGI (CAKI-1 renal) of the same compound?
The TGI was over 100 µM.

What about the TGI (ACHN renal) of the same compound?
Its TGI is over 100 µM.

And the TGI (IGROV1 ovarian)?
Its TGI is over 100 µM.

What about the TGI (UO-31 renal) of the same compound?
The TGI was over 100 µM.

What about the TGI (HCT-15 colon) of the same compound?
Its TGI is over 100 µM.

What about the TGI (SK-MEL-2 melanoma) of the same compound?
The TGI was over 100 µM.

What about the TGI (SF-295 CNS) of the same compound?
The TGI was over 100 µM.

And the TGI (KM12 colon)?
The TGI was over 100 µM.

And the TGI (HCC-2998 colon)?
Its TGI is over 100 µM.

And the TGI (SN12C renal)?
Its TGI is over 100 µM.

What about the TGI (SW-620 colon) of the same compound?
Its TGI is over 100 µM.

What about the TGI (DLD-1 colon) of the same compound?
Its TGI is over 100 µM.

What about the TGI (MALME-3M melanoma) of the same compound?
Its TGI is over 100 µM.

What about the TGI (LOX IMVI melanoma) of the same compound?
The TGI was over 100 µM.

And the TGI (KM20L2 colon)?
The TGI was over 100 µM.

And the TGI (OVCAR-3 ovarian)?
The TGI was over 100 µM.

And the TGI (UACC-257 melanoma)?
Its TGI is over 100 µM.

What about the TGI (LXFL 529 NSCLC) of the same compound?
The TGI was over 100 µM.

And the TGI (786-0 renal)?
Its TGI is over 100 µM.

What about the TGI (UACC-62 melanoma) of the same compound?
The TGI was over 100 µM.

What about the TGI (OVCAR-8 ovarian) of the same compound?
Its TGI is over 100 µM.

What about the TGI (DMS 273 small cell lung) of the same compound?
Its TGI is over 100 µM.

And the TGI (K-562 leukemia)?
The TGI was over 100 µM.

What about the TGI (SNB-19 CNS) of the same compound?
The TGI was over 100 µM.

What about the TGI (HT29 colon) of the same compound?
Its TGI is over 100 µM.

What about the TGI (HL-60(TB) leukemia) of the same compound?
Its TGI is over 100 µM.

What about the TGI (CCRF-CEM leukemia) of the same compound?
Its TGI is over 100 µM.

What about the TGI (M19-MEL melanoma) of the same compound?
The TGI was over 100 µM.

And the TGI (RXF 393 renal)?
The TGI was over 100 µM.

What about the TGI (NCI-H23 lung) of the same compound?
The TGI was over 100 µM.

What about the TGI (RPMI-8226 leukemia) of the same compound?
The TGI was over 100 µM.

What about the TGI (SK-OV-3 ovarian) of the same compound?
Its TGI is over 100 µM.

Which results are given for c1ccc2c(c1)CCC/C2=N\OCC1CO1 (stereo not given)?
TGI (SNB-75 CNS): > 100 µM; TGI (U251 CNS): > 100 µM; TGI (RXF-631 renal): > 100 µM; TGI (HOP-92 NSCLC): > 100 µM; TGI (OVCAR-4 ovarian): > 100 µM; TGI (SNB-78 CNS): > 100 µM; TGI (EKVX NSCLC): > 100 µM; TGI (A549 NSCLC): > 100 µM; TGI (SK-MEL-5 melanoma): > 100 µM; TGI (HCT-116 colon): > 100 µM; TGI (TK-10 renal): > 100 µM; TGI (HOP-18 NSCLC): > 100 µM; TGI (MOLT-4 leukemia): > 100 µM; TGI (SF-268 CNS): > 100 µM; TGI (A498 renal): > 100 µM; TGI (HOP-62 NSCLC): > 100 µM; TGI (SF-539 CNS): > 100 µM; TGI (OVCAR-5 ovarian): > 100 µM; TGI (COLO 205 colon): > 100 µM; TGI (M14 melanoma): > 100 µM; TGI (NCI-H460 lung): > 100 µM; TGI (CAKI-1 renal): > 100 µM; TGI (ACHN renal): > 100 µM; TGI (IGROV1 ovarian): > 100 µM; TGI (UO-31 renal): > 100 µM; TGI (HCT-15 colon): > 100 µM; TGI (SK-MEL-2 melanoma): > 100 µM; TGI (SF-295 CNS): > 100 µM; TGI (KM12 colon): > 100 µM; TGI (HCC-2998 colon): > 100 µM; TGI (SN12C renal): > 100 µM; TGI (XF 498 CNS): > 100 µM; TGI (SW-620 colon): > 100 µM; TGI (DLD-1 colon): > 100 µM; TGI (MALME-3M melanoma): > 100 µM; TGI (LOX IMVI melanoma): > 100 µM; TGI (KM20L2 colon): > 100 µM; TGI (OVCAR-3 ovarian): > 100 µM; TGI (UACC-257 melanoma): > 100 µM; TGI (LXFL 529 NSCLC): > 100 µM; TGI (786-0 renal): > 100 µM; TGI (UACC-62 melanoma): > 100 µM; TGI (OVCAR-8 ovarian): > 100 µM; TGI (DMS 273 small cell lung): > 100 µM; TGI (K-562 leukemia): > 100 µM; TGI (SNB-19 CNS): > 100 µM; TGI (HT29 colon): > 100 µM; TGI (HL-60(TB) leukemia): 92.1 µM; TGI (CCRF-CEM leukemia): > 100 µM; TGI (M19-MEL melanoma): > 100 µM; TGI (RXF 393 renal): 98.9 µM; TGI (NCI-H23 lung): > 100 µM; TGI (RPMI-8226 leukemia): > 100 µM; TGI (SK-OV-3 ovarian): > 100 µM
